Numbering of substitutions follows the chain as printed. Like-named read-outs stand apart in the source and are kept apart here.
Columns and labels:
[1] = target: T1, FGFR2 (Homo sapiens, UniProt P21802); assay: SelectScreen in vitro kinase screen, FGFR2; assay type: biochemical
T1 construct: the juxtamembrane, ATP and catalytic components projecting from the cell membrane into the cytosol have been expressed through recombinant genetic techniques; purchased Invitrogen, Inc. (SelectScreen platform)
Description: (§1) The IC50 value is, therefore, a measure of potency. Another important feature is specificity.

[2] = target: NTRK1 (Homo sapiens, UniProt P04629); assay: Kinase selectivity analysis (FIG. 4A), NTRK1; assay type: biochemical; settings: in words
Description: as §1

[3] = target: PDGFRb (Homo sapiens, UniProt P09619); assay: Kinase selectivity analysis (FIG. 4A), PDGFRb; assay type: biochemical; settings: in words
Method: (§2) Testing of the compounds described in this invention was carried out using the SelectScreen™ platform from Invitrogen, Inc. (Carlsbad, Calif., USA) and the details of its performance are readily viewed via the web by linking to: http://www.invitrogen.com/downloads/SelectScm_Brochure.pdf.
(§3) Briefly the approach is based on treating each specific kinase with a unique substrate and optical reporter system in the presence of ATP at 100 micromolar or at the apparent optimal ATP concentration for each kinase. In controls, the substrate is phosphorylated and a baseline optimal response is recorded. Graded amounts of putative inhibitor are then added in separate increments to generate a dose response curve. The latter is obtained by fitting to a sigmoid saturation equation, such as the Hill equation, and the concentration of test article producing 50 per cent inhibition is then noted as the IC50. […] The IC50 value is, therefore, a measure of potency. Another important feature is specificity. It is considered a desirable property when claiming efficacy to determine how many kinases are inhibited by the same molecule. The fewer number inhibited points toward specificity; the greater to inhibitory promiscuity.
(§4) First the compounds of this invention were tested against a subset, the primary kinase screen, to determine initial activity at 1 and 0.1 micromolar concentrations.

[4] = system: PKC; assay: Kinase selectivity analysis (FIG. 4A), PKC; assay type: biochemical; settings: in words
Method: as §2, §3, §4

[5] = target: T2, FLT3 (Homo sapiens, UniProt P36888); assay: SelectScreen in vitro kinase screen, FLT3 (Example 2); assay type: biochemical; settings: for activity against FLT3: in words
T2 construct: the juxtamembrane, ATP and catalytic components projecting from the cell membrane into the cytosol have been expressed through recombinant genetic techniques; purchased Invitrogen, Inc. (SelectScreen platform)
T2 sequence (P36888 564-993 limits assumed): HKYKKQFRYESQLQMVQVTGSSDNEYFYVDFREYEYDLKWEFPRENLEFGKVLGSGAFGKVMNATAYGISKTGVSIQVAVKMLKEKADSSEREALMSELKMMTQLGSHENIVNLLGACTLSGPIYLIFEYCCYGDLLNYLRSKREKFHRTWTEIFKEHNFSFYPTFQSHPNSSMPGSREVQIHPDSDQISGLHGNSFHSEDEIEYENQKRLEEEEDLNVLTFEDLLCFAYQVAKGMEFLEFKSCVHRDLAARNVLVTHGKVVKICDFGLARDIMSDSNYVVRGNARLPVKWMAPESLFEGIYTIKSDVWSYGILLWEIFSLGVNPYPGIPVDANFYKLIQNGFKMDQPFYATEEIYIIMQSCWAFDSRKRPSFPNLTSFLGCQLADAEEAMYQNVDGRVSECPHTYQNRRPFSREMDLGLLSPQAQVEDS
Description: as §1

[6] = target: all the other RTK's; assay: SelectScreen in vitro kinase screen, other RTK and TK enzymes; assay type: biochemical; settings: read-out: IC50 against all the other RTK's
Description: as §1

[7] = target: T3, FLT3 D835Y (Homo sapiens, UniProt P36888, D835Y); assay: SelectScreen in vitro kinase screen, FLT3 mutant; assay type: biochemical; settings: in words
T3 construct: the juxtamembrane, ATP and catalytic components projecting from the cell membrane into the cytosol have been expressed through recombinant genetic techniques; purchased Invitrogen, Inc. (SelectScreen platform)
T3 sequence (P36888 564-993 D835Y limits assumed): T2 sequence (P36888 564-993 limits assumed) with D272Y
Description: as §1

[8] = system: KDR, PDGF and TRK members of the RTK family; assay: SelectScreen in vitro kinase screen, closely related RTKs; assay type: biochemical; settings: in words, relative to FLT3
Description: as §1

[9] = system: RS4(11) cells; assay: Cell viability in RS4(11) cells; assay type: cell-based, human
Description: (§5) It is now understood that an important subset of human myeloid leukemia cells overexpress FLT3 as constitutively activated mutations. The most prevalent of these is the internal tandem duplication. Two cell lines commonly used to test the potency of FLT3 inhibitors on cell growth and viability are the RS4(11) and MV4(11). The RS4(11) cell line, also known as RS4;11, was established from a bone marrow patient with acute lymphoblastic leukemia. This patient was […]. The cells lack surface and cytoplasmic immunoglobulin, and are negative for CD10. The cells have a characteristic chromosome translocation (4;11)(q21;q23), and an isochromosome for the long arm of chromosome 7. These cells express the wild-type FLT3 receptor and are further characterized by expression of the MHC Class II antigens (HLA DR+); CD9+; CD24+. The MV4(11) cell line, also known as MV-4-11, was established from the blast cells of a person with biphenotypic B myelomonocytic leukemia (ATCC). Other sources indicate this cell line is derived from acute monocytic leukemia (AML FAB M5). […] These cells express a mutant form of FLT3 containing an internal tandem duplication (ITD), and are further characterized by expression of CD4 (40-96%); CD10 (4-11%); CD15 (96-99%). […]

[10] = system: MV4(11) cells; assay: Cell viability in MV4(11) cells; assay type: cell-based, human; settings: FLT3 ITD, compared with PKC412
Description: as §5

[11] = system: Experimental Autoimmune Encephalomyelitis (EAE); assay: Experimental autoimmune encephalomyelitis (EAE) in mice; assay type: in vivo, C57BL/6 mice; settings: oral, from day 5: 10 mg/kg every 24 hrs, 20 mg/kg every 48 hrs, 30 mg/kg every 72 hrs; versus vehicle controls
Method: The EAE preparation used to test the efficacy of the imidazoacridinone analogs of the present invention followed a similar protocol as described by Small et al. (Patent Application WO 2006/020145 A2, 23 Feb. 2006) and was conducted by MD Biosciences, a contract research organization that provides in vivo and in vitro disease models as well as mode of action studies for general inflammatory screening, arthritis, IBD, and multiple sclerosis. C57BL/6 mice were immunized with proteolipid protein emulsified in Complete Freund's Adjuvant on day 0 of the study. After a booster with pertussis toxin also on day 0 and then on day 2, the mice were treated on day 5 after disease induction with three oral dosing schedules of XF-2, at 10 mg/kg every 24 hrs, 20 mg/kg every 48 hrs and 30 mg/kg every 72 hrs.

[12] = system: HL-60 leukemia; assay: Growth arrest in HL-60 leukemia; settings: Homo sapiens, HL-60, read-out: EC50 growth arrest
Method: When standard protocols for adherent cell culture are followed, according to the instructions supplied by the American Type Culture Collection for the two line, the cell will proliferate with an approximate 30 hour doubling time.

[13] = target: T2, FLT3; assay: SelectScreen in vitro dose response assay against FLT3 (Example 7); assay type: biochemical; settings: ATP at 100 micromolar; 4 parameter Hill equation
Method: The terms “IC50” and “EC50” are used interchangeably. As used herein, “EC50” refers to nMolar concentration at median percent inhibition determined by dose respose (DR) assay. As used herein, the term “E1000” refers to percent inhibition at 1000 nMolar determined by assay. EC50 was calculated based on dose response curve was fitted to 4 parameter Hill equation.
The compounds were then re-tested by adding graded amounts of putative inhibitor which were added in 5 separate increments to generate a dose response curve. The latter is obtained by fitting to a 4 parameter Hill equation, a sigmoid saturation equation.
The 2× FLT3/Tyr 02 peptide mixture was prepared in 50 mM HEPES pH 7.5, 0.01 BRIJ-35, 10 mM MgCl2, 1 mM EGTA. The final 10 uL kinase reaction consists of 0.6-76.0 ng FLT3 and 2 uM Tyr 02 peptide in 50 mM HEPES pH 7.5, 0.01% BRIJ-35, 10 mM Mg Cl2, 1 mM EGTA. After 1 hour kinase reaction incubation, 5 uL of a 1:64 dilution of development reagent A was added.

[14] = read-out: IC50 as FLT3 inhibitors (FIG. 3)

T1 sequence (P21802 399-821 limits assumed): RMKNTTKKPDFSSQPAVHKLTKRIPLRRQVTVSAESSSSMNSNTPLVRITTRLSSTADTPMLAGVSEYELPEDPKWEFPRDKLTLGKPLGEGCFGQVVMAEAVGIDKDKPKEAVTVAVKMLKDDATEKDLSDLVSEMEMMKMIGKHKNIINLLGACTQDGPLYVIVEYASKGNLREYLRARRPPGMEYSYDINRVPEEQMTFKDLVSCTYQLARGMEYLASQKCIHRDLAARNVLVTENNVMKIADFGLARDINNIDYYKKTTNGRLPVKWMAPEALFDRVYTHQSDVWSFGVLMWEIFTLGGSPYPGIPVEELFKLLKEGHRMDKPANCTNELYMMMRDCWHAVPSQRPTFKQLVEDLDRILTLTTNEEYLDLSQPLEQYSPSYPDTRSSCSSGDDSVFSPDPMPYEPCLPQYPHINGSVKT
Sequence of PDGFRb (P09619 33-1106): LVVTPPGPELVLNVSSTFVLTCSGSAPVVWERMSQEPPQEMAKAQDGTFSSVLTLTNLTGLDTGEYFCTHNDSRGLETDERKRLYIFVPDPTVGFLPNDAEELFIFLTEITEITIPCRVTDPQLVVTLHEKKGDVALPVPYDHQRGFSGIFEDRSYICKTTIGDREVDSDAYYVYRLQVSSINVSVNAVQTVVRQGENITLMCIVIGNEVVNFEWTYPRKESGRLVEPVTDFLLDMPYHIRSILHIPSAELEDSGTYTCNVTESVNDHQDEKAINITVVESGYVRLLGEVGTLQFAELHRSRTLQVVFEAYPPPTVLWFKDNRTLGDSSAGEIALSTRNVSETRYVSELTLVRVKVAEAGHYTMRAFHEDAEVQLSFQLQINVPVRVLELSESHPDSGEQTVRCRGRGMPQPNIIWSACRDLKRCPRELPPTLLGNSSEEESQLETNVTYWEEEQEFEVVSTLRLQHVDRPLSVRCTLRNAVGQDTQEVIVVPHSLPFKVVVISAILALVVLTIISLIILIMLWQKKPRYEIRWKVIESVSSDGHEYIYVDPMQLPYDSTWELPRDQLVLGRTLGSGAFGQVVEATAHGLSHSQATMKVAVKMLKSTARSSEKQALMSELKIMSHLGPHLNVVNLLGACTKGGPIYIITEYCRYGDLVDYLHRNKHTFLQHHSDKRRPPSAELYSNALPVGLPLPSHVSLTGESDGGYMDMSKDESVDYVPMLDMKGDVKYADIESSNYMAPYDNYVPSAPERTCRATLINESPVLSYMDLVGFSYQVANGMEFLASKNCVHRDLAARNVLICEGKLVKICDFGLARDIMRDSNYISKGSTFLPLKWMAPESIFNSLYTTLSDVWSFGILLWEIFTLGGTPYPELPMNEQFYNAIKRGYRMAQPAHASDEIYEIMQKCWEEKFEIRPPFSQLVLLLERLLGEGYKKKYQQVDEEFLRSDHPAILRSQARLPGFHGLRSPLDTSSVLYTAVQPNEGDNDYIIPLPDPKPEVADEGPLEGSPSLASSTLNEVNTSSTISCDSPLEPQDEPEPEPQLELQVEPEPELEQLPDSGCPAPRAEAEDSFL
Sequence of NTRK1 (P04629 33-796): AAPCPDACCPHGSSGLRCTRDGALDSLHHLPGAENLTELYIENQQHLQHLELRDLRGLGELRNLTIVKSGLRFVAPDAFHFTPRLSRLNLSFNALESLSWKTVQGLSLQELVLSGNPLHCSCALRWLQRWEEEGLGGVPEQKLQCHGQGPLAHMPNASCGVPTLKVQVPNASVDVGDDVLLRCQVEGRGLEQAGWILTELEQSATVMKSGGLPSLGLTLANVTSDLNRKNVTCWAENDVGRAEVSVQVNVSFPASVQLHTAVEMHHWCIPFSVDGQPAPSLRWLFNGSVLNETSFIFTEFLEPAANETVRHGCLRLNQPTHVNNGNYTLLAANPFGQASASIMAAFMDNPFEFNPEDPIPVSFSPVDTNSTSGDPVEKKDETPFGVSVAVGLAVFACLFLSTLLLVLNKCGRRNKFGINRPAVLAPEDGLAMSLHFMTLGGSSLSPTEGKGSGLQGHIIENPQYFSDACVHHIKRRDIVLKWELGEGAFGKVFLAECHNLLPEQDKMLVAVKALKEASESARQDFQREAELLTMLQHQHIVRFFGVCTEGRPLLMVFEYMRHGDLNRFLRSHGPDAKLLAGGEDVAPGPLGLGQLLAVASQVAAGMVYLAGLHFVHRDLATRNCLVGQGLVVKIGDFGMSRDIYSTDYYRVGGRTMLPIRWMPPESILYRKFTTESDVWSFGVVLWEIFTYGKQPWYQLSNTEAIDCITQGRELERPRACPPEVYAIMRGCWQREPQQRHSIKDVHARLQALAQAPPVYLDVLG

C[C@]12O[C@H](C[C@]1(O)CO)n1c3ccccc3c3c4c(c5c6ccccc6n2c5c31)CNC4=O [CEP-701, reference compound]
inhibition of FGFR2 ([1]; in words, FIG. 4A): inhibits
inhibition of NTRK1 [2]: inhibits

CO[C@@H]1[C@H](N(C)C(=O)c2ccccc2)C[C@H]2O[C@]1(C)n1c3ccccc3c3c4c(c5c6ccccc6n2c5c31)C(=O)NC4 [PKC-412]
cross-reaction with PDGFRb [3]: cross-reacts
cross-reaction with PKC [4]: cross-reacts

CCN(CC)CCNc1ccc2ncn3c4ccc(O)cc4c(=O)c1c23 [XF-2]
activity against FLT3 [5]: active
IC50 ([5]; read-out: IC50 against FLT3): ~0.01 µM
IC50 [5, 14]: 0.008 µM
drop of inhibitory activity on FGFR2 relative to FLT3, in EC50 value ([1]; FGFR2 versus FLT3): 100 fold
IC50 ([1]; read-out: IC50 against FGFR2): > 2 µM
IC50 [6]: > 5 µM
activity against FLT3 mutant form [7]: active
inhibitory activity against KDR, PDGF and TRK members of the RTK family [8]: many fold less pronounced
EC50 ([9]; Homo sapiens, read-out: effective concentration to decrement cell viability by 50% (EC50), 72 hrs of continuous exposure): 0.034 µM
cell viability potency, in words [10]: closely matched
clinical scores [11]: lower clinical scores
EC50 [12]: > 10 µM

O=c1c2cc(O)ccc2n2cnc3ccc(NCCN4CCOCC4)c1c32 [XF-22]
activity against FLT3 [5]: active
IC50 [5, 14]: 0.012 µM
activity against FLT3 mutant form [7]: active
inhibitory activity against KDR, PDGF and TRK members of the RTK family [8]: many fold less pronounced
EC50 cell viability, in words ([9]; 72 hrs, compared with PKC-412): closer to the micromolar mark
cell viability potency, in words [10]: less activity
EC50 [12]: > 10 µM

CN(C)CCNc1ccc2ncn3c4ccc(O)cc4c(=O)c1c23 [XF-0025]
EC50 [13]: 0.025 µM

O=c1c2cc(O)ccc2n2cnc3ccc(NCCCN4CCOCC4)c1c32 [XF-0113]
activity against FLT3 [5]: active
activity against FLT3 mutant form [7]: active
inhibitory activity against KDR, PDGF and TRK members of the RTK family [8]: many fold less pronounced
EC50 [13]: 0.05 µM

O=c1c2c(NCCN3CCOCC3)ccc3ncn(c4ccc5[nH]ncc5c14)c32 [XF-0122]
EC50 [13]: 0.051 µM

O=c1c2cc(O)ccc2n2cnc3ccc(NCCN4CCCC4)c1c32 [XF-0241]
EC50 [13]: 0.05 µM

CN(C)CCNc1ccc2ncn3c4ccccc4c(=O)c1c23 [XF-0308]
EC50 [13]: 0.133 µM

O=c1c2ccccc2n2cnc3ccc(NCCNCCO)c1c32 [XF-0328]
EC50 [13]: 0.135 µM

Reference: US20100016300A1, “Imidazoacridine Compounds for Treating FLT3-Mediated Disorders” (priority 2006, published 2010)
